Laboratory results from patent publication US20260158011A1 (Achieve Life Sciences, Inc., priority 2023, published 2026).
Several values for one entry are separate records, joined by “and”; a condition that tells them apart may be missing. Equal values may be shown once. Read-outs that look alike come from different tables or passages of the source.

Test system: adult e-cigarette users
Settings: for Relative Risk, vaping cessation Week 9 to 12: Row 1 (X = 0) over Row 2 (X = 1); for Common Relative Risk, Logit / Common Relative Risk, Mantel-Haenszel: X = 0 over X = 1, controlling for S; for Relative Risk, Logit / Relative Risk, Mantel-Haenszel: X = 0 over X = 1, no stratifier
Protocol: This Example describes a Phase 2 ORCA-V1 trial evaluated 160 adult e-cigarette users at 5 clinical trial locations in the United States. […] ORCA-V1 participants were randomized to receive 3 mg cytisinicline three times daily or placebo for 12 weeks in combination with standard cessation behavioral support. The dose and administration of cytisinicline in the ORCA-V1 study is identical to that used in the Phase 3 registrational trials for smoking cessation.
ORCA-V1 evaluated the efficacy and safety of 3 mg cytisinicline dosed three times daily for 12 weeks compared to placebo in 160 adult users of e-cigarettes or nicotine vapes. All participants received behavioral support for nicotine cessation.
Subjects were stratified on whether they have smoked >100 cigarettes in their lifetime (yes vs no) (FIG. 57). […] Missing data may be assumed as reported vaping.
Key inclusion criteria consisted of daily electronic cigarette usage (age ≥18 years): willing to bring e-cigarette or nicotine device used to clinical site and document specific product type, flavor, and nicotine level. Individuals were required to test positive for cotinine using the Alere iScreen® Oral Fluid Screening Device (Positive testing at 30 ng/mL cotinine level). Individuals required to be willing to set quit date within 7-14 days of after randomization and to participate in vaping cessation behavioral support provided throughout the study.
Key exclusion criteria included those currently smoking, or having smoked within 4 weeks prior to study randomization, and those with Expired Carbon Monoxide (CO) levels ≥10 ppm, indicating recent combustible tobacco use (i.e., no dual users). Those with clinically abnormal laboratory values were also excluded, as well as those with positive urinary screen for illicit drugs (THC not included in screen). Those with uncontrolled hypertension (BP 160/100 mmHg), abnormal ECG, or recent acute myocardial infarction, stroke, or heart failure admission in past 3 months were excluded. Psychiatric exclusions included (1) schizophrenia or bipolar disorder, (2) current moderate to severe depression symptoms, (3) high risk of suicide ideation. Pregnant or breast-feeding women or unwilling to use acceptable methods of birth control during the study were also excluded.
The first measurement consisted of biochemically verified continuous vaping abstinence during the last 4 weeks of treatment after 12 weeks of cytisinicline treatment vs placebo. Vaping abstinence during weeks 9-12 was verified with no reported vaping with weekly saliva cotinine levels <10 ng/mL.
A second measurement consisted of biochemically verified continuous vaping abstinence at any time during treatment, with vaping abstinence at Week 3-6 or Week 6-9 for of cytisinicline treatment vs placebo. 7-day point prevalence rates were compared for vaping abstinence (Week 2 to 12) (FIG. 62). An additional measurement included reduction in daily vaping as measured by cotinine, where cytisinicline treatment vs placebo for a reduction in nicotine vaping using weekly quantitative cotinine levels from Week 2 to Week 12. Safety was assessed by adverse effects and serious adverse effects, considering number, severity, and attribution to study drug.

[1] = 3 mg cytisinicline TID 12 weeks
[2] = All Randomized Set, Cytisinicline 12 Weeks N = 107, saliva cotinine <10 ng/mL
[3] = X = 1, Table of X by Y, all randomized, 107 subjects in row
[4] = X = 1, stratum S = 0 (>100 cigarettes = No), 30 subjects in row
[5] = X = 1, stratum S = 1 (>100 cigarettes = Yes), 77 subjects in row
[6] = share of all N = 107 of the arm
[7] = vs placebo, no stratifier, N=160, vaping cessation Week 9 to 12

## O=c1cccc2n1C[C@@H]1CNC[C@H]2C1 [cytisine, (−)-Cytisine]
[1]
  Odds ratio versus placebo, vaping cessation weeks 9-12, primary analysis with prospective stratification factor: 2.6 and 2.64
  Odds ratio versus placebo, vaping cessation weeks 9-12, site as a stratification factor: 3.03
  Odds ratio versus placebo, vaping cessation weeks 9-12, without any stratification factor: 2.62
3 mg cytisinicline TID 12 weeks, saliva cotinine <10 ng/mL
  Vaping cessation rate during weeks 9-12: 31.8%
12 Weeks arm N = 107, All Randomized Set
  Continuous Vaping Abstinence Week 9 to Week 16, n (%): 25 (23.4) n (%)
[2]
  Vaping Cessation from Week 3 to Week 6, percent of subjects: 24.3%
  Vaping Cessation from Week 6 to Week 9, percent of subjects: 30.8%
All Randomized Set, Cytisinicline 12 wks N = 107, saliva cotinine <10 ng/mL
  Vaping Cessation From Week 9 to Week 12, percent of subjects: 31.8%
Week 2, 12 Weeks arm N = 107, All Randomized Set
  7-Day Point Prevalence Abstinence, n (%): 15 (14.0) n (%)
Week 2, vs placebo (N = 53)
  7-Day Point Prevalence Abstinence, Difference in Proportions: 0.06
  7-Day Point Prevalence Abstinence, Odds Ratio: 2.00
Week 3, 12 Weeks arm N = 107, All Randomized Set
  7-Day Point Prevalence Abstinence, n (%): 36 (33.6) n (%)
Week 3, vs placebo (N = 53)
  7-Day Point Prevalence Abstinence, Difference in Proportions: 0.11
  7-Day Point Prevalence Abstinence, Odds Ratio: 1.73
Week 4, 12 Weeks arm N = 107, All Randomized Set
  7-Day Point Prevalence Abstinence, n (%): 53 (49.5) n (%)
Week 4, vs placebo (N = 53)
  7-Day Point Prevalence Abstinence, Difference in Proportions: 0.25
  7-Day Point Prevalence Abstinence, Odds Ratio: 3.02
Week 5, 12 Weeks arm N = 107, All Randomized Set
  7-Day Point Prevalence Abstinence, n (%): 45 (42.1) n (%)
Week 5, vs placebo (N = 53)
  7-Day Point Prevalence Abstinence, Difference in Proportions: 0.14
  7-Day Point Prevalence Abstinence, Odds Ratio: 1.84
Week 6, 12 Weeks arm N = 107, All Randomized Set
  7-Day Point Prevalence Abstinence, n (%): 44 (41.1) n (%)
Week 6, vs placebo (N = 53)
  7-Day Point Prevalence Abstinence, Difference in Proportions: 0.17
  7-Day Point Prevalence Abstinence, Odds Ratio: 2.15
Week 7, 12 Weeks arm N = 107, All Randomized Set
  7-Day Point Prevalence Abstinence, n (%): 52 (48.6) n (%)
Week 7, vs placebo (N = 53)
  7-Day Point Prevalence Abstinence, Difference in Proportions: 0.26
  7-Day Point Prevalence Abstinence, Odds Ratio: 3.23
Week 8, 12 Weeks arm N = 107, All Randomized Set
  7-Day Point Prevalence Abstinence, n (%): 46 (43.0) n (%)
Week 8, vs placebo (N = 53)
  7-Day Point Prevalence Abstinence, Difference in Proportions: 0.18
  7-Day Point Prevalence Abstinence, Odds Ratio: 2.32
Week 9, 12 Weeks arm N = 107, All Randomized Set
  7-Day Point Prevalence Abstinence, n (%): 45 (42.1) n (%)
Week 9, vs placebo (N = 53)
  7-Day Point Prevalence Abstinence, Difference in Proportions: 0.18
  7-Day Point Prevalence Abstinence, Odds Ratio: 2.23
Week 10, 12 Weeks arm N = 107, All Randomized Set
  7-Day Point Prevalence Abstinence, n (%): 44 (41.1) n (%)
Week 10, vs placebo (N = 53)
  7-Day Point Prevalence Abstinence, Difference in Proportions: 0.13
  7-Day Point Prevalence Abstinence, Odds Ratio: 1.77
Week 11, 12 Weeks arm N = 107, All Randomized Set
  7-Day Point Prevalence Abstinence, n (%): 40 (37.4) n (%)
Week 11, vs placebo (N = 53)
  7-Day Point Prevalence Abstinence, Difference in Proportions: 0.13
  7-Day Point Prevalence Abstinence, Odds Ratio: 1.84
Week 12, 12 Weeks arm N = 107, All Randomized Set
  7-Day Point Prevalence Abstinence, n (%): 41 (38.3) n (%)
Week 12, vs placebo (N = 53)
  7-Day Point Prevalence Abstinence, Difference in Proportions: 0.16
  7-Day Point Prevalence Abstinence, Odds Ratio: 2.12
X = 1, Table of X by Y, all randomized
  Vaping cessation Week 9 to 12, Row Pct Y = 0 (failure): 68.22 Pct
[3]
  Vaping cessation Week 9 to 12, Frequency Y = 0 (failure): 73
  Vaping cessation Week 9 to 12, Row Pct Y = 1 (success): 31.78 Pct
X = 1, stratum S = 0 (>100 cigarettes = No)
  Vaping cessation Week 9 to 12, Row Pct Y = 0 (failure): 63.33 Pct
[4]
  Vaping cessation Week 9 to 12, Frequency Y = 0 (failure): 19
  Vaping cessation Week 9 to 12, Row Pct Y = 1 (success): 36.67 Pct
X = 1, stratum S = 1 (>100 cigarettes = Yes)
  Vaping cessation Week 9 to 12, Row Pct Y = 0 (failure): 70.13 Pct
[5]
  Vaping cessation Week 9 to 12, Frequency Y = 0 (failure): 54
  Vaping cessation Week 9 to 12, Row Pct Y = 1 (success): 29.87 Pct
Y = 0 (failure of vaping cessation Week 9 to 12), X = 1, N=160
  Column 1 Risk Estimates, Risk, Row 2: 0.6822
Y = 0 (failure), stratum S = 0, N=45
  Relative Risk, vaping cessation Week 9 to 12: 1.2632
Y = 0 (failure), stratum S = 1, N=115
  Relative Risk, vaping cessation Week 9 to 12: 1.2383
Y = 0 (failure), N=160
  Common Relative Risk, Logit: 1.2435
  Common Relative Risk, Mantel-Haenszel: 1.2448
  Relative Risk, Logit: 1.2445
  Relative Risk, Mantel-Haenszel: 1.2445
Y = 1 (success), stratum S = 0, N=45
  Relative Risk, vaping cessation Week 9 to 12: 0.5455
Y = 1 (success), stratum S = 1, N=115
  Relative Risk, vaping cessation Week 9 to 12: 0.4405
Y = 1 (success), X = 0 minus X = 1, N=160
  Column 2 Risk Difference (Row 1-Row 2): −0.1668
Y = 1 (success), N=160
  Common Relative Risk, Logit: 0.4784
  Common Relative Risk, Mantel-Haenszel: 0.4747
  Relative Risk, Logit: 0.4750
  Relative Risk, Mantel-Haenszel: 0.4750
Y = 1 (vaping cessation Week 9 to 12), X = 1, N=160
  Column 2 Risk Estimates, Risk, Row 2: 0.3178
Placebo group as reference
  Difference in Proportions, Vaping Cessation from Week 3 to Week 6: 0.09
  Difference in Proportions, Vaping Cessation from Week 6 to Week 9: 0.14
  Odds Ratio, Vaping Cessation from Week 3 to Week 6: 1.81
  Odds Ratio, Vaping Cessation from Week 6 to Week 9: 2.18
Placebo group as reference, All Randomized Set
  Marginal Difference in Proportions, Vaping Cessation from Week 9 to Week 12: 0.17
[6]
  Vaping Cessation From Week 9 to Week 12, value in parentheses, >100 Cigarettes smoke in Lifetime = No: 10.3
  Vaping Cessation From Week 9 to Week 12, value in parentheses, >100 Cigarettes smoke in Lifetime = Yes: 21.5
Stratum S = 0 (N=45; 30 on cytisinicline), Frequency X = 1, Y = 1 in FREQ table
  Vaping Cessation From Week 9 to Week 12, number of subjects, >100 Cigarettes smoke in Lifetime = No: 11
Stratum S = 1 (N=115; 77 on cytisinicline), Frequency X = 1, Y = 1 in FREQ table
  Vaping Cessation From Week 9 to Week 12, number of subjects, >100 Cigarettes smoke in Lifetime = Yes: 23
Vs placebo (N = 53)
  Continuous Vaping Abstinence Week 9 to Week 16, Difference in Proportions: 0.10
  Continuous Vaping Abstinence Week 9 to Week 16, Odds Ratio: 2.00
Vs placebo, controlling for S (>100 Cigarettes Smoked in Lifetime no, yes), N=160, listed as Cytisinicline
  Common Odds Ratio (Mantel-Haenszel), vaping cessation Week 9 to 12: 2.6375 and 2.64
Vs placebo, controlling for S, N=160
  Common Odds Ratio (Logit), vaping cessation Week 9 to 12: 2.6304
[7]
  Common Odds Ratio (Logit), summary statistics for X by Y: 2.6199
  Common Odds Ratio (Mantel-Haenszel), summary statistics for X by Y: 2.6199
Vs placebo, stratum S = 0 (>100 cigarettes = No), N=45
  Odds Ratio, vaping cessation Week 9 to 12: 2.3158
Vs placebo, stratum S = 1 (>100 cigarettes = Yes), N=115
  Odds Ratio, vaping cessation Week 9 to 12: 2.8111
